The text below walks through data of US4347177A, “Compounds and methods of making them” (Burroughs Wellcome Co., priority 1980, dated 1982).

A short description of the series: Pharmacokinetics of bupropion in plasma after oral administration to four normal male subjects (RIA using 3H bupropion). It counts as in vivo. Conditions: human plasma, oral 200 mg bupropion-HCl (two 100 mg tablets). The procedure: Samples of six standard solutions of bupropion in blank plasma having concentrations of 0.39 to 50 ng/ml) are pipetted (0.1 ml each) in duplicate into 12×75 mm plastic tubes. Duplicate non-specific binding (no antibody) and maximum binding tubes (no unlabeled bupropion) receive 0.1 ml blank plasma. Spiked plasma controls at several concentrations of (e.g., 1.0, 10.0, and 100 ng/ml) and plasma samples for assay (diluted into the standard range with blank plasma if necessary) are assayed in duplicate. After being placed in an ice bath, all tubes receive (in order) 0.2 ml ^3 H bupropion (416 pg. containing approximately 10^4 cpm) and 0.7 ml anti-bupropion serum (raised to a ring-functionalized immunogen according to the present invention) (at pre-determined dilutions such that approximately 40% of the ^3 H bupropion added is bound), both in assay buffer (0.05 M phosphate-bufferedisotonic saline, containing 0.01 M EDTA and 0.1% gelatin, pH 7.0). […] The supernatants, containing antibody-bound ^3 H bupropion are carefully decanted into liquid scintillation cocktail for quantitation of ^3 H. After counts (minus average non-specific binding cpm) are expressed as percentages of average maximum binding cpm, bupropion concentrations in plasma samples and spiked controls are read from a standard curve (log concentration vs percent average maximum binding).
The procedure of Example X has been applied to a study of bupropion (supplied as Wellbatrin, produced by Burroughs Wellcome Co.) pharmacokinetics in plasma after oral administration of 200 mg bupropion-HCl (in two 100 mg tablets) to four normal male subjects. Venous blood samples were collected at various times following dosing, and concentrations in plasma samples determined as described. […]

Structures are written as SMILES.

The term half-life denotes the time needed for the level to fall by half in the phase considered. Take `CC(NC(C)(C)C)C(=O)c1cccc(Cl)c1` (racemic) [bupropion, (±)-2-tert-butylamino-3'-chloropropiophenone]: the Cmax (mean ± S.D., read-out: maximum plasma bupropion concentration) came to 217 ± 37 ng/mL. Further, the Tmax (mean ± S.D., read-out: time to reach maximum concentration) worked out at 1.5 ± 0.4 h. In addition, the half-life (± S.D., read-out: mean elimination half-life (converted)) was 2.9 ± 0.4 h.
